Laboratory results from US7332482B2, “Method for treating benign prostatic hyperplasia” (BioXell S.p.A., priority 2003, dated 2008).
“Also recorded” adds a separate entry of the source. Marks after values point to notes of the source that are not given here.

Experiments:
[1] = system: BPH cells; assay: BPH cell proliferation assay; format: cell-based, human; conditions: 48 h
Procedure: (§1) Human BPH cells, prepared, maintained and used as previously described in Crescioli C, et al. Journal of Clinical and Endocrinology Metabolism (2000) 85 p 2576-2583, were obtained from prostate tissues derived from 5 patients, who underwent suprapubic adenomectomy for BPH, after informed consent and approval by the Local Ethical Committee.
For all cell proliferation assay, 4×10^4 BPH cells were seeded onto 12-well plates in their growth medium, starved in red- and serum-free medium containing 0.1% BSA for 24 h, and then treated with specific stimuli for 48 h. Cells in phenol red- and serum-free medium containing 0.1% BSA were used as controls. Thereafter, cells were trypsinized, and each experimental point was derived from hemocytometer counting, averaging at least six different fields for each well, as previously reported (see Crescioli C, et al. Journal of Clinical and Endocrinology Metabolism (2000) 85 p 2576-2583). […] Growth assays were also carried out using a fixed concentration of androgens (10 nM) with or without Compound A (1 nM, 10 nM) or the anti-androgens finasteride (F, 1 nM) and cyproterone acetate (Cyp, 100 nM). Growth assays were also performed using a fixed concentration of T (10 nM) or GFs (10 ng/ml) with or without Compound A (10 nM). In the same experiment, each experimental point was repeated in triplicate or quadruplicate and experiments were performed 3 times. Results are expressed as % variation (mean±SEM) over the maximal T or GF-induced stimulation.

[2] = system: BPH cells; assay: In situ end labeling (ISEL) of apoptotic BPH cells; format: cell-based, human
Procedure: as §1
ISEL was performed onto BPH cells using Apop Tag in situ apoptosis detection kit peroxydase following the manufacturer's instruction. Cells were incubated with T (10 nM), KGF (10 ng/ml) or Des(1-3)IGF-I (10 ng/ml) with or without Compound A (10 nM). The percentage of apoptotic cells (the number of stained cells divided by the total number of cells) was calculated in at least five separate fields per slide in five different slides. Results are expressed as mean±SEM from three separate experiments.

[3] = molecular target: T1, 5α reductase type 1 (Homo sapiens, UniProt P18405); assay: 5α reductase inhibition test in CHO 1827 cells; format: cell-based; conditions: 10^−9 to 10^−5 M
T1 construct: host or cells: CHO 1827
T1 sequence (P18405 1-259): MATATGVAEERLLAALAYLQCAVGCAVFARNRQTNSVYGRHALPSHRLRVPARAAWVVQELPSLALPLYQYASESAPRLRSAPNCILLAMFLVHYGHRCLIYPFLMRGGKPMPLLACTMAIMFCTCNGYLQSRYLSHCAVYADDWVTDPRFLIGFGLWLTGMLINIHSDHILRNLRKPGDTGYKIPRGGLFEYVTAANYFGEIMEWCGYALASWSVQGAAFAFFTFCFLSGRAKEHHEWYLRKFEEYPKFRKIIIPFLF
Procedure: CHO-1827 and CHO-1829 cells, transfected with 5α reductase type 1 (5αR-1) or type 2 (5αR-2), respectively (see Steers W. Urology (2001) 58 p 17-24), were maintained in Ham's F12 medium supplemented with 5% FCS.
5α reductase inhibition assay was performed using CHO 1827 cells, transfected with 5αR-1, or CHO 1829 cells, transfected with 5αR-2, as described (see Guarna A, et al. Journal of Medicinal Chemistry (2000) 43 3718-3735.). Compound A was added in a concentration range from 10^−9 to 10^−5 M, using finasteride as a control inhibitor in each experiment.

[4] = molecular target: T2, AR (Homo sapiens, UniProt P10275); assay: [3H]R1881 binding assay on cytosol fractions of BPH fragments; design: from tissue; host or cells: human BPH prostatic tissue, cytosol fraction
T2 sequence (P10275 1-920): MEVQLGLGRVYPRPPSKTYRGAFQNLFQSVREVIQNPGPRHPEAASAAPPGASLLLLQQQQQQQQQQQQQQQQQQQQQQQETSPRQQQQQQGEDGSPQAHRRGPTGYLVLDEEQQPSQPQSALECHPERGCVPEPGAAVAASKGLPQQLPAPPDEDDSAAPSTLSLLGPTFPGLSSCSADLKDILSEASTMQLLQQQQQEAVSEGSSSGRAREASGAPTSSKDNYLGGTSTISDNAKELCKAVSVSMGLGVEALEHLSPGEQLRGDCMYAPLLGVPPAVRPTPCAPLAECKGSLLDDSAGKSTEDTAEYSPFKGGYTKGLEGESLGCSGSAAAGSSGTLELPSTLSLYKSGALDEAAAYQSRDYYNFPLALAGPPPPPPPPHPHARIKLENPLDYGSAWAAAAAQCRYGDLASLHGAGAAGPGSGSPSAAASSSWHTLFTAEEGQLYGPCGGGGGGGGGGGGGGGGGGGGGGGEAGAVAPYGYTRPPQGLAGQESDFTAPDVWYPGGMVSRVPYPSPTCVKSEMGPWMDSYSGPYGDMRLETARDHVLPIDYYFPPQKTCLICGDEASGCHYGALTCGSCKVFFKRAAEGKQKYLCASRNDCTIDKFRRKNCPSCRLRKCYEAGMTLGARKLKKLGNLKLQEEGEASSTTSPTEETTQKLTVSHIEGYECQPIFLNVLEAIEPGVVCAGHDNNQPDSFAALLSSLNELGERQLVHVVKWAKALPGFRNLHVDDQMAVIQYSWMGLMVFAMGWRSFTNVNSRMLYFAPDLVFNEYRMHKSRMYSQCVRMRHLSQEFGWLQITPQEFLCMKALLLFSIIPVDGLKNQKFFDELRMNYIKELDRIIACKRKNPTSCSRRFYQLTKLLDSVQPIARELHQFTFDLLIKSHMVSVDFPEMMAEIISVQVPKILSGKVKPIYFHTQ
Procedure: Prostatic tissues for binding assay were obtained from patients who underwent suprapubic adenomectomy for BPH. No pharmacological treatment was performed in the 3 months preceding surgery. After surgery, the tissues were immediately placed in liquid nitrogen and stored at −80° C. until processing.
Protein content was determined by the known method of Bradford, using BSA as a standard.

[5] = molecular target: T2, AR; assay: Luciferase assay in AR-transfected PC3 cells; format: cell-based; design: In PC3 cells expressing the full length AR coupled to a luciferase report gene; expressed in transfected cells; host or cells: PC3 (AR-deficient human prostate adenocarcinoma), stably transfected with p5HbhAR-A; conditions: increasing concentrations, alone or with DHT 3 nM
Procedure: PC3 cells stably transfected with human AR were plated in 24-well plates at a density of 2×10^4 in Ham's F12 plus 10% FCS. […] Transfected cells incubated with ethanol only served as positive controls.
The Luciferase assay was performed with a Berthold luminometer according to the manufacturer's instructions (Luciferase Assay System, Promega, Milan, Italy). The cells were lysed directly in the plate with 200 μl of lysis buffer. Luciferase activity was measured on 20 μl of cell lysate for 10 s after addition of 100 μl of luciferine. Total protein measurement was performed on 20 μl of cell lysate. At least three independent assays were done in duplicate.

C=C1/C(=C\C=C2/CCC[C@]3(C)C([C@@H](C)C/C=C/C(O)(CC)CC)=CC[C@@H]23)C[C@@H](O)C[C@@H]1F [Compound A, 1-alpha-fluoro-25-hydroxy-16,23E-diene-26,27-bishomo-20-epi-cholecalciferol]
effect on growth of androgen-unstimulated BPH cells ([1]; Compound A 1 nM): reduced growth
effect on DHT-stimulated BPH cell proliferation ([1]; DHT 10 nM, Compound A 1 nM, F 1 nM, Cyp 100 nM): antagonized; also recorded: significantly blocked
effect on T-stimulated BPH cell proliferation ([1]; T 10 nM, Compound A 1 nM, F 1 nM, Cyp 100 nM): antagonized; also recorded: significantly blocked
Imax, inhibition of T- or GF-stimulated BPH cell growth ([1]; T 10 nM, KGF or Des(1-3)IGF-I 10 ng/ml): 66.6±7.3%
maximal inhibition (Imax) of BPH cell growth ([1]; unstimulated BPH cells, Imax shared by both secosteroids): 43±1%
change in percentage of apoptotic nuclei vs untreated cells ([2]; 48 h, Compound A 10 nM, T 10 nM, GFs 10 ng/ml): 270%
Apoptotic index (%) ([2]; Compound A 10 nM alone, ISEL): 68.44 ± 1.26^a %
Apoptotic index (%) ([2]; Compound A 10 nM with Des(1-3)IGF-I 10 ng/ml): 45.85 ± 0.66^a,b,c %
increase in number of ISEL-positive BPH cells in the presence of GFs or T ([2]; Compound A 10 nM with GFs or T): more than 250%
Apoptotic index (%) ([2]; Compound A 10 nM with KGF 10 ng/ml): 44.46 ± 0.57^a,b,c %
Apoptotic index (%) ([2]; Compound A 10 nM with T 10 nM): 49.06 ± 1.87^a,b,c %
interference with 5α reductase type 1 [3]: did not interfere with either isoenzyme up to the micromolar range
Kd [4]: > 100 µM
competition for [3H]-R1881 binding ([4]; human BPH homogenates, 10^−10-10^−4 M): did not compete
effect on AR-mediated luciferase activity (agonist/antagonist) [5]: neither stimulated nor inhibited
